Experimental data taken from patent US20040142888A1, “Modulators of RabGGT and methods of use thereof” (priority 2002, published 2004).

Experiments:
C. elegans germline [1] = assay: Apoptosis in the C. elegans germline (apoptotic corpses per germline arm), after compound and/or RNAi treatment; type: in vivo; details: wild-type worms, compound 1.5 mM
Method: The compounds were applied to early larval and adult C. elegans hermaphrodites by mixing a concentrated DMSO solution of the compound with heat-killed OP50 bacteria in a salt solution. The bacteria were then applied to agar plates and worms of the appropriate age seeded onto the plates. Compounds 7A, 7B, 7C, 7D, 7H, 7I and 7J were applied to worms at a final concentration of 1.5 mM. and the resulting visible phenotypes analyzed. The phenotype of apoptosis in C. elegans was quantified as follows: Germ cells in the C. elegans hermaphrodite gonad progress through various stages of differentiation to become mature ova. At the pachytene stage of meiotic prophase, some germ cells undergo programmed cell death (apoptosis) as part of normal development. The apoptotic corpses resulting from this process can be visualized by high-resolution Nomarski optics and are readily distinguishable cells to the trained eye from viable germ cells by their compact, button-like appearance. Necrotic cells, which are rarer, have a less compact appearance. Apoptosis is most reliably distinguished from necrosis, however, by its requirement for the core apoptotic machinery, such as a functional caspase/ced-3 gene. Since C. elegans has symmetrical anterior and posterior gonad structures, referred to as “arms”, apoptosis is scored by visually counting the apoptotic corpses present in a 1-2 day old adult in each germline arm. Normal, untreated worms rarely contain more than 2 corpses per arm. In a treated sample, the number of worms that contain more than 2 corpses provides a very accurate indicator of the apoptotic effect of the treatment. Early larval and adult C. elegans hermaphrodites were treated with compound and the phenotype of apoptosis in the germline arm was quantified as described in Example IV. DNA encoding GGTase alpha/[…].2 (GenBank entry NM-067966) and GGTase beta/B0280.1 (GenBank entry NM 066158) was amplified from a C. elegans genomic DNA template by PCR (Takara LA Taq DNA polymerase) using oligonucleotides containing gene-specific priming sequences that were flanked by sequences encoding the T7 polymerase priming site. The gene-specific priming sequences targeted the first 5 exons of B0280.1 (product size 2 kiloBases) and the first four exons of […].2 (product size 1 kiloBases). The PCR products were analyzed by gel electrophoresis to confirm that the correct product size was obtained. RNA was transcribed from the PCR product using the MEGAscript High Yield Transcription Kit (Ambion) according to manufacturer's instructions. Directly after transcription, the RNA was annealed by heating to 68° C. for 20 minutes. The double stranded RNA (dsRNA) was checked for product quality by gel electrophoresis. The dsRNA was then ethanol-precipitated, washed once with 100% ethanol and twice with 70% ethanol and the pellet was allowed to air dry for 30 minutes. The dsRNA was re-suspended in 1× IM buffer (20 mM KPO4, 3 mM potassium citrate, 2% PEG 6000) in volume equal to the original in vitro transcription reaction, and stored at -20° C. For RNAi treatment of worms, wild type animals at the L2/L3 stage of development were collected in M9 buffer at 50 animals/μl (M9 is 0.044 M KH2PO4, 0.085 M Na2HPO4, 0.18 M NaCl and 1 mM MgSO4). 1 μl of this nematode suspension was added to 3 μl of dsRNA and incubated for 24 hours in a sealed 96 well plate at 20° C. in a humidified chamber. Animals were allowed to develop to adulthood before compound treatment and/or assay of germline apoptosis as described in Example IV. Early larval and adult C. elegans hermaphrodites were treated with compound as described in Example IV. RNAi preparation and treatment was performed as described in Example VI. The phenotype of apoptosis in the germline arm was quantified as described in Example IV. Early larval and adult C. elegans hermaphrodites were treated with compound as described in Example IV. RNAi preparation and treatment was performed as described in Example VI. […]

[2] = biological target: Farnesyl Transferase (FT) (Homo sapiens, UniProt P49354+P49356); assay: Biochemical assay for inhibition of farnesyl transferase (FT)
Method: Biochemical assays for inhibition of FT were performed as described by Mann et al. (1995, Drug Dev. Res. 34: 121) with the modifications described by Ding et al. (1999, J. Med. Chem., 42:5241)

C. elegans germline [3] = assay: Apoptosis in the C. elegans germline (apoptotic corpses per germline arm), after compound and/or RNAi treatment; type: in vivo; details: for increase in apoptotic corpses / % arms with >2 corpses / Corpses/germline arm, mean / Frequency: germline arms with 0 apoptotic corpses / Frequency: germline arms with 1 apoptotic corpse / Frequency: germline arms with 2 apoptotic corpses / Frequency: germline arms with 3 apoptotic corpses / Frequency: germline arms with 4 apoptotic corpses / Frequency: germline arms with >4 apoptotic corpses: 7B at 1.6 mM
HCT116 colon tumor = details: HCT116 xenograft, 600 mg/kg orally once daily for ten doses, cited from earlier work
[4] = wild-type worms, 7B 0.3 mM and/or RNAi against RabGGT alpha subunit

## COc1ccc(S(=O)(=O)N2Cc3cc(C#N)ccc3N(Cc3cnc[nH]3)C[C@H]2Cc2ccccc2)cc1 [Compound 7A]
C. elegans germline [1]
  % arms with >2 corpses: 36%
  Corpses/germline arm, mean: 2.0
  Frequency: germline arms with 0 apoptotic corpses: 1
  Frequency: germline arms with 1 apoptotic corpse: 4
  Frequency: germline arms with 2 apoptotic corpses: 2
  Frequency: germline arms with 3 apoptotic corpses: 3
  Frequency: germline arms with 4 apoptotic corpses: 0
  Frequency: germline arms with >4 apoptotic corpses: 1
  effect on mean number of apoptotic corpses in the germline: increasing the mean number of apoptotic corpses in the germline
[2]
  IC50: 2.4 nM
  IC90: 30 nM

## N#Cc1ccc2c(c1)CN(S(=O)(=O)N1CCCCC1)[C@H](Cc1ccccc1)CN2Cc1cnc[nH]1 [Compound 7B]
C. elegans germline [1]
  % arms with >2 corpses: 92%
  Corpses/germline arm, mean: 6.9
  Frequency: germline arms with 0 apoptotic corpses: 0
  Frequency: germline arms with 1 apoptotic corpse: 0
  Frequency: germline arms with 2 apoptotic corpses: 1
  Frequency: germline arms with 3 apoptotic corpses: 1
  Frequency: germline arms with 4 apoptotic corpses: 0
  Frequency: germline arms with >4 apoptotic corpses: 10
C. elegans germline [3]; APAF-1/ced-4 mutants
  increase in apoptotic corpses: no increase in corpses was observed
C. elegans germline [3]; WT worms
  % arms with >2 corpses: 100%
  Corpses/germline arm, mean: 6.25
  Frequency: germline arms with 0 apoptotic corpses: 0
  Frequency: germline arms with 1 apoptotic corpse: 0
  Frequency: germline arms with 2 apoptotic corpses: 0
  Frequency: germline arms with 3 apoptotic corpses: 1
  Frequency: germline arms with 4 apoptotic corpses: 0
  Frequency: germline arms with >4 apoptotic corpses: 10
C. elegans germline [3]; caspase/ced-3 mutants
  increase in apoptotic corpses: no increase in corpses was observed
C. elegans germline [3]; ced3 mutant worms
  % arms with >2 corpses: 0%
  Corpses/germline arm, mean: 0.08
  Frequency: germline arms with 0 apoptotic corpses: 12
  Frequency: germline arms with 1 apoptotic corpse: 1
  Frequency: germline arms with 2 apoptotic corpses: 0
  Frequency: germline arms with 3 apoptotic corpses: 0
  Frequency: germline arms with 4 apoptotic corpses: 0
  Frequency: germline arms with >4 apoptotic corpses: 0
C. elegans germline [3]; ced4 mutant worms
  % arms with >2 corpses: 0%
  Corpses/germline arm, mean: 0.15
  Frequency: germline arms with 0 apoptotic corpses: 11
  Frequency: germline arms with 1 apoptotic corpse: 2
  Frequency: germline arms with 2 apoptotic corpses: 0
  Frequency: germline arms with 3 apoptotic corpses: 0
  Frequency: germline arms with 4 apoptotic corpses: 0
  Frequency: germline arms with >4 apoptotic corpses: 0
C. elegans germline [3]; wild-type adult worms, compound at 0.8 mM or higher
  observed number of apoptotic corpses per germline arm: 5-7
C. elegans germline [3]; [4]
  % arms with 0-2 corpses: 50%
  % arms with 3-4 corpses: 33%
  % arms with >4 corpses: 17%
  Corpses/arm, mean: 2.3
  Frequency: arms with 0 apoptotic corpses: 5
  Frequency: arms with 1 apoptotic corpse: 5
  Frequency: arms with 2 apoptotic corpses: 2
  Frequency: arms with 3 apoptotic corpses: 5
  Frequency: arms with 4 apoptotic corpses: 3
  Frequency: arms with >4 apoptotic corpses: 4
[2]
  IC50: 7.8 nM
  IC90: 110 nM

## CCCS(=O)(=O)N1Cc2cc(C#N)ccc2N(Cc2cnc[nH]2)C[C@H]1Cc1ccccc1 [Compound 7H]
C. elegans germline [1]
  % arms with >2 corpses: 29%
  Corpses/germline arm, mean: 1.6
  Frequency: germline arms with 0 apoptotic corpses: 5
  Frequency: germline arms with 1 apoptotic corpse: 4
  Frequency: germline arms with 3 apoptotic corpses: 3
  Frequency: germline arms with 4 apoptotic corpses: 2
  Frequency: germline arms with >4 apoptotic corpses: 0
  effect on mean number of apoptotic corpses in the germline: increasing the mean number of apoptotic corpses in the germline
HCT116 colon tumor
  death attributed to drug related toxicity (among eight mice treated): one
HCT116 colon tumor; cure = no mass larger than 35 mg
  mice that experienced cure of the tumor (among eight mice treated): seven
[2]
  IC50: 4.1 nM
  IC90: 360 nM

## COc1ccc(S(=O)(=O)N2Cc3cc(C#N)ccc3N(Cc3cncn3C)C[C@H]2Cc2ccccc2)cc1 [Compound 7I]
C. elegans germline [1]
  % arms with >2 corpses: 33%
  Corpses/germline arm, mean: 2.3
  Frequency: germline arms with 0 apoptotic corpses: 1
  Frequency: germline arms with 1 apoptotic corpse: 3
  Frequency: germline arms with 2 apoptotic corpses: 3
  Frequency: germline arms with 3 apoptotic corpses: 1
  Frequency: germline arms with 4 apoptotic corpses: 2
  Frequency: germline arms with >4 apoptotic corpses: 1
  effect on mean number of apoptotic corpses in the germline: increasing the mean number of apoptotic corpses in the germline
[2]
  IC50: 1.4 nM
  IC90: 11 nM

## Cn1cncc1CN1C[C@@H](Cc2ccccc2)N(S(=O)(=O)c2cccs2)Cc2cc(C#N)ccc21 [Compound 7J]
C. elegans germline [1]
  % arms with >2 corpses: 59%
  Corpses/germline arm, mean: 2.8
  Frequency: germline arms with 0 apoptotic corpses: 3
  Frequency: germline arms with 1 apoptotic corpse: 4
  Frequency: germline arms with 2 apoptotic corpses: 1
  Frequency: germline arms with 3 apoptotic corpses: 4
  Frequency: germline arms with 4 apoptotic corpses: 4
  Frequency: germline arms with >4 apoptotic corpses: 3
  effect on mean number of apoptotic corpses in the germline: increasing the mean number of apoptotic corpses in the germline
[2]
  IC50: 0.8 nM
  IC90: 7 nM
